From ChEMBL document CHEMBL1201862, “PubChem BioAssay data set” (2004)
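Exposure lasted 48 hours, with cells grown in 96-well plates and compounds tested at five concentrations. GI50: concentration for 50% inhibition of growth.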 Active and inactive are the calls of the source. Rule as the data show it: active = GI50 up to about 1.1 µM and inactive = higher.

What was measured:
Assay in all cases: NCI tumour cell line growth inhibition, 48 h
KM12 = tested on: KM12
OVCAR-3 = tested on: OVCAR-3
SNB-75 = tested on: SNB-75
SF-295 = tested on: SF-295
MOLT-4 = tested on: MOLT-4
SNB-19 = tested on: SNB-19
UO-31 = tested on: UO-31
LOX IMVI = tested on: LOX IMVI
COLO 205 = tested on: COLO 205
TK-10 = tested on: TK-10
MCF7 = tested on: MCF7
NCI-H226 = tested on: NCI-H226
HCT-116 = tested on: HCT-116
PC-3 = tested on: PC-3
OVCAR-5 = tested on: OVCAR-5
NCI-H522 = tested on: NCI-H522
IGROV-1 = tested on: IGROV-1
786-0 = tested on: 786-0
SK-MEL-2 = tested on: SK-MEL-2
BT-549 = tested on: BT-549

Measured: GI50

C=C1[C@@H](OC(C)=O)[C@H]2[C@@H](OC(C)=O)[C@@](C)(OC(C)=O)C[C@]2(OC(C)=O)C(=O)[C@@H](C)/C=C/C(C)(C)C(=O)C[C@H]1OC(C)=O
inactive: KM12 > 100 µM | OVCAR-3 47.2 µM | SNB-75 > 100 µM | SF-295 > 100 µM | MOLT-4 > 100 µM | SNB-19 > 100 µM | UO-31 > 100 µM | LOX IMVI > 100 µM | COLO 205 72.3 µM | TK-10 > 100 µM | MCF7 > 100 µM | NCI-H226 > 100 µM | HCT-116 > 100 µM | PC-3 > 100 µM | OVCAR-5 > 100 µM | NCI-H522 45.3 µM | IGROV-1 > 100 µM | 786-0 > 100 µM | SK-MEL-2 > 100 µM

COc1cc(NCCC(=O)O)c2ncccc2c1
inactive: OVCAR-3 > 100 µM | SF-295 > 100 µM | BT-549 > 100 µM | MOLT-4 > 100 µM | SNB-19 > 100 µM | UO-31 > 100 µM | LOX IMVI > 100 µM | TK-10 > 100 µM | NCI-H226 > 100 µM | HCT-116 > 100 µM | PC-3 > 100 µM | OVCAR-5 > 100 µM | NCI-H522 > 100 µM | IGROV-1 > 100 µM | 786-0 > 100 µM | SK-MEL-2 38.8 µM

COC(=O)[C@@H](NS(=O)(=O)CC12CCC(CC1)C2(C)C)C(C)(C)C
inactive: KM12 > 100 µM | OVCAR-3 > 100 µM | SNB-75 > 100 µM | SF-295 > 100 µM | BT-549 > 100 µM | MOLT-4 4.85 µM | SNB-19 > 100 µM | UO-31 > 100 µM | LOX IMVI > 100 µM | COLO 205 > 100 µM | TK-10 > 100 µM | MCF7 > 100 µM | NCI-H226 > 100 µM | HCT-116 > 100 µM | OVCAR-5 > 100 µM | NCI-H522 > 100 µM | IGROV-1 > 100 µM | 786-0 > 100 µM | SK-MEL-2 > 100 µM

O=C(O)CCCc1nc2c(n1-c1ccccc1)C(=O)c1ccccc1C2=O
inactive: KM12 31.3 µM | OVCAR-3 33.6 µM | SNB-75 43.5 µM | SF-295 60 µM | MOLT-4 68.4 µM | SNB-19 > 100 µM | UO-31 > 100 µM | LOX IMVI > 100 µM | COLO 205 52.5 µM | TK-10 > 100 µM | MCF7 32.6 µM | HCT-116 49.1 µM | OVCAR-5 > 100 µM | NCI-H522 14.2 µM | IGROV-1 > 100 µM | 786-0 > 100 µM | SK-MEL-2 97.9 µM

COCC#C[C@@]1(O)CCCCC1CC(OC)OC (stereo partly specified)
inactive: KM12 > 100 µM | SNB-75 > 100 µM | SF-295 > 100 µM | MOLT-4 42.7 µM | SNB-19 > 100 µM | UO-31 > 100 µM | LOX IMVI 48 µM | COLO 205 > 100 µM | TK-10 > 100 µM | MCF7 60 µM | NCI-H226 > 100 µM | HCT-116 81.8 µM | PC-3 > 100 µM | OVCAR-5 > 100 µM | NCI-H522 24.7 µM | IGROV-1 48.1 µM | 786-0 > 100 µM | SK-MEL-2 > 100 µM

CNc1nc(N)cc(O)n1
inactive: KM12 > 100 µM | OVCAR-3 > 100 µM | SNB-75 > 100 µM | SF-295 > 100 µM | MOLT-4 > 100 µM | SNB-19 > 100 µM | UO-31 > 100 µM | LOX IMVI > 100 µM | COLO 205 > 100 µM | TK-10 > 100 µM | NCI-H226 > 100 µM | HCT-116 > 100 µM | OVCAR-5 > 100 µM | NCI-H522 > 100 µM | IGROV-1 > 100 µM | 786-0 > 100 µM | SK-MEL-2 > 100 µM

CC(=O)OCC(=O)[C@@]1(O)CC[C@H]2[C@@H]3C[C@H](C)C4=CC(=O)C=C[C@]4(C)[C@@]3(F)[C@@H](O)C[C@@]21C
inactive: KM12 > 100 µM | OVCAR-3 > 100 µM | SNB-75 73.8 µM | SF-295 > 100 µM | MOLT-4 68.7 µM | SNB-19 > 100 µM | UO-31 81.1 µM | LOX IMVI > 100 µM | COLO 205 > 100 µM | TK-10 > 100 µM | NCI-H226 32.5 µM | HCT-116 > 100 µM | OVCAR-5 12.9 µM | NCI-H522 > 100 µM | IGROV-1 > 100 µM | 786-0 > 100 µM | SK-MEL-2 > 100 µM

C[C@H](CCC1SC1(C)C)C1CCC2(C)C3=C(CC[C@]12C)[C@@]1(C)CC[C@H](O)C(C)(C)C1CC3 (stereo partly specified)
inactive: KM12 > 100 µM | OVCAR-3 > 100 µM | SNB-75 75.2 µM | SF-295 > 100 µM | MOLT-4 > 100 µM | SNB-19 > 100 µM | UO-31 > 100 µM | LOX IMVI > 100 µM | COLO 205 > 100 µM | TK-10 > 100 µM | NCI-H226 > 100 µM | HCT-116 > 100 µM | OVCAR-5 > 100 µM | NCI-H522 > 100 µM | IGROV-1 > 100 µM | 786-0 > 100 µM | SK-MEL-2 > 100 µM

O=C1[C@@H]2C[C@@H](O)CN2C(=O)c2ccccc2N1CCCO
inactive: KM12 > 100 µM | OVCAR-3 > 100 µM | SNB-75 > 100 µM | SF-295 > 100 µM | MOLT-4 82 µM | SNB-19 > 100 µM | UO-31 > 100 µM | LOX IMVI > 100 µM | TK-10 > 100 µM | MCF7 > 100 µM | NCI-H226 > 100 µM | HCT-116 > 100 µM | PC-3 > 100 µM | OVCAR-5 > 100 µM | NCI-H522 > 100 µM | IGROV-1 > 100 µM | 786-0 > 100 µM | SK-MEL-2 > 100 µM

Cc1ccc(/C=C2\NC(=S)N(CN3CCOCC3)C2=O)cc1
inactive: KM12 > 100 µM | OVCAR-3 > 100 µM | SNB-75 > 100 µM | SF-295 > 100 µM | MOLT-4 > 100 µM | SNB-19 > 100 µM | UO-31 > 100 µM | LOX IMVI > 100 µM | COLO 205 > 100 µM | TK-10 > 100 µM | MCF7 66.5 µM | NCI-H226 > 100 µM | HCT-116 > 100 µM | PC-3 > 100 µM | OVCAR-5 > 100 µM | IGROV-1 > 100 µM | 786-0 > 100 µM | SK-MEL-2 > 100 µM

Nc1ccc(C23CC4CC(C2)CC(c2ccc(N)cc2)(C4)C3)cc1
inactive: KM12 > 100 µM | OVCAR-3 48.5 µM | BT-549 42.9 µM | MOLT-4 11.3 µM | SNB-19 37.8 µM | UO-31 48.6 µM | LOX IMVI > 100 µM | COLO 205 2.3 µM | TK-10 > 100 µM | MCF7 31.8 µM | NCI-H226 11.5 µM | HCT-116 44.3 µM | OVCAR-5 27.7 µM | IGROV-1 > 100 µM | 786-0 38.5 µM | SK-MEL-2 35.9 µM

O=C(CCc1ccccc1)On1nnc2ccccc2c1=O
inactive: KM12 > 100 µM | OVCAR-3 > 100 µM | SNB-75 > 100 µM | SF-295 > 100 µM | MOLT-4 > 100 µM | SNB-19 > 100 µM | UO-31 > 100 µM | LOX IMVI > 100 µM | COLO 205 > 100 µM | TK-10 26.5 µM | NCI-H226 > 100 µM | HCT-116 > 100 µM | OVCAR-5 > 100 µM | NCI-H522 > 100 µM | IGROV-1 > 100 µM | 786-0 > 100 µM | SK-MEL-2 > 100 µM

O=C(/C=C/c1ccccc1O)c1ccc([N+](=O)[O-])cc1
inactive: KM12 18.5 µM | OVCAR-3 12.4 µM | SNB-75 7.8 µM | SF-295 21.7 µM | MOLT-4 22.3 µM | SNB-19 16.6 µM | UO-31 19.1 µM | LOX IMVI 15.8 µM | COLO 205 12.5 µM | TK-10 26.7 µM | NCI-H226 18 µM | HCT-116 15.6 µM | OVCAR-5 22.1 µM | NCI-H522 17.3 µM | IGROV-1 12.9 µM | 786-0 17.3 µM | SK-MEL-2 19.8 µM

O=C1c2ccccc2C(=O)c2c1ccc(O)c2O [ATHRAQUINONES A]
inactive: KM12 57.8 µM | OVCAR-3 32.9 µM | SNB-75 28.2 µM | SF-295 57.3 µM | MOLT-4 32.4 µM | SNB-19 61.2 µM | UO-31 36.6 µM | LOX IMVI 37.8 µM | COLO 205 34.5 µM | TK-10 > 100 µM | NCI-H226 94.8 µM | HCT-116 32.4 µM | OVCAR-5 > 100 µM | NCI-H522 39.4 µM | IGROV-1 35.6 µM | 786-0 63 µM | SK-MEL-2 43 µM

O=c1[nH]nc(-c2ccccc2)n1O
inactive: KM12 > 100 µM | OVCAR-3 > 100 µM | SF-295 > 100 µM | MOLT-4 > 100 µM | SNB-19 > 100 µM | UO-31 > 100 µM | LOX IMVI > 100 µM | COLO 205 > 100 µM | TK-10 > 100 µM | MCF7 > 100 µM | NCI-H226 > 100 µM | HCT-116 > 100 µM | PC-3 > 100 µM | OVCAR-5 > 100 µM | NCI-H522 > 100 µM | IGROV-1 > 100 µM | 786-0 > 100 µM | SK-MEL-2 > 100 µM
